Patent publication EP0385445A2, “Method of forming a suspension and composition formed by said method” (Horikoshi, Isamu, priority 1989, dated 1990)
Where a SMILES comes first, the peptide text is derived from it. Bridges are numbered along the chain shown (N, C = ends).

How the values were obtained:
[1] = Absorption of vitamin A through lymphatic vessels after injection of emulsions into the loop of small intestines; type: in vivo, Wistar male rats
Protocol: Wistar male rats each weighing about 400 g were starved for 24 hours. The starved rats were anesthetized by intraperitoneal administration of pentobarbital. Thereafter, the rats were incised in the belly and silicon cannulas were inserted into the area between the pylorus of the stomach and the duodenum and into the ileocecal area. Through the upper cannula, liquid drugs (5 ml) composed of the emulsions prepared in Example 1 were injected into the loop of small intestines (duodenum, jejunum and ileum) and the cannula was closed with a clamp.
Blood and lymph fluid were collected from the hip artery and the lymph in the thoracic duct at given time intervals and the concentrations of vitamin A in the two fluids were measured. A similar experiment was conducted on biliary fistula rats from which bile was excreted through a cannula inserted into the bile duct, and comparison was made with intact rats which had not received such a treatment.
[…] After extraction with cyclohexane, the concentration of vitamin A in each sample was measured by fluorometry at 480 nm with fluorescence excited at 340 nm. After being absorbed by the small intestines, vitamin A forms chylomicron, the greater part of which is known to be transferred into the lymph system, not the blood system.

[2] = Measurement of emulsion activity (light transmittance); type: physicochemical; settings: emulsion containing the labelled fat or oil; Fig. 6
Protocol: After heating at 40 - 45°C for 5 minutes, the mixture was stirred with a Polytron homogenizer at a maximum speed for 1 minute to obtain an emulsion (which contained 5 wt% of the oil).
Each of the emulsions was put into a test tube, which was readjusted to a vertical position and left to stand at room temperature. At given time intervals, 0.2-ml portions of each emulsion were collected from the bottom of the test tube and mixed with 3.8 ml of an aqueous solution of 0.1% sodium dodecylsulfate. The light transmittance of each sample was measured under various conditions and the results of measurements are shown in Figs. 3 - 6.

[3] = Concentration of eel calcitonin in blood after injection into the duodenum (Example 11); type: in vivo, Wistar male rats; settings: male, Wistar, rat, 50 ug per rat, 100 µg/ml, 0.5 ml into the duodenum
Protocol: Wistar male rats each weighing ca. 200 g were cannulated at the duodenum and tail vein under anesthetization with either and restrained in Bollman cages. […] A control group was injected with 0.5 ml of PBS(-), and a calcitonin control group was injected with 0.5 ml of a solution of calcitonin in phosphate buffer saline (100 µg/ml). Blood samples were taken from these control-groups according to the same schedule as in the case of the emulsion treated group. Thirty minutes before the administration of calciton, calcium chloride in physiological saline was administered intraperitoneally in an amount of 60 mg/kg in order to stimulate the secretion of endogenous calcitonin. Each rat group consisted of 6 animals.

[4] = rat, in vivo
Protocol: Wistar male rats each weighing ca. 300 g were starved overnight. Thereafter, their skin above the right common carotid artery was incised and a cannula was inserted into the artery. […] The so prepared emulsion was administered orally to the rats. […] The dose of hydrocortisone was 1.5 mg/kg. After hydrocortisone administration, blood samples were taken at regular time intervals. Feces and urine were collected and the rats were killed 49 hours after the administration. The digestive tracts, their contents and various organs were separated and the content of hydrocortisone in each site was determined by radioactivity measurement.

[5] = Oral absorption of lipid-soluble drugs reduced to microspheres with MFGM; settings: drug reduced to microspheres with MFGM

## vitamin A
[1]; rat, in vivo
  concentration of vitamin A in lymph: dropped to very low levels
  vitamin A in the blood: hardly detectable

## CCCCCCCC/C=C\CCCCCCCC(=O)OCC(O)CO (stereo not drawn) [monoolein]
[2]
  increase in emulsion activity: least increase

## CC(C)C[C@H](NC(=O)[C@H](CCCCN)NC(=O)CNC(=O)[C@H](CC(C)C)NC(=O)[C@@H](NC(=O)[C@@H]1CSSC[C@H](N)C(=O)N[C@@H](CO)C(=O)N[C@@H](CC(N)=O)C(=O)N[C@@H](CC(C)C)C(=O)N[C@@H](CO)C(=O)N[C@@H]([C@@H](C)O)C(=O)N1)C(C)C)C(=O)N[C@@H](CO)C(=O)N[C@@H](CCC(N)=O)C(=O)N[C@@H](CCC(=O)O)C(=O)N[C@@H](CC(C)C)C(=O)N[C@@H](Cc1c[nH]cn1)C(=O)N[C@@H](CCCCN)C(=O)N[C@@H](CC(C)C)C(=O)N[C@@H](CCC(N)=O)C(=O)N[C@H](C(=O)N[C@@H](Cc1ccc(O)cc1)C(=O)N1CCC[C@H]1C(=O)N[C@@H](CCCNC(=N)N)C(=O)N[C@H](C(=O)N[C@@H](CC(=O)O)C(=O)N[C@H](C(=O)NCC(=O)N[C@@H](C)C(=O)NCC(=O)N[C@H](C(=O)N1CCC[C@H]1C(N)=O)[C@@H](C)O)C(C)C)[C@@H](C)O)[C@@H](C)O [Calcitonin treated] (H-CSNLSTCVLGKLSQELHKLQTYPRTDVGAGTP-NH2; disulfide 1-7 (inferred); N-terminus and C-terminus assumed)
[3]; 0
  level at 0 h: 0.1 ± 0.08 ng/mL
[3]; 30 min.
  level at 0.5 h: 0.7 ± 0.09 ng/mL
[3]; 60 min.
  level at 1 h: 0.7 ± 0.22 ng/mL
[3]; 90 min.
  level at […]: 0.8 ± 0.31 ng/mL
[3]; 120 min.
  level at 2 h: 0.6 ± 0.4 ng/mL

## Tween 80
[4]
  residual in the body: 12.41 % of dose

## CCCCCCCC/C=C\CCCCCCCC(=O)O [oleic acid]
[1]; intact rats, emulsion in labelled fat or oil, content 5%, vitamin A 2.5 mg per rat, Fig. 9
  concentration of vitamin A in lymph (ranking): lowest level
[2]
  increase in emulsion activity: highest increase

## COC1=C(OC)C(=O)C(CCCCCCCCCCO)=C(C)C1=O [avan]
[5]
  ability of MFGM to promote the absorption: also observed
